# According to patent US4965280A, “Antifungal carbinols” (E. I. Du Pont de Nemours and Company, priority 1989, dated 1990):
# Read-outs that look alike come from different tables or passages of the source.
# Key:
# Puccinia recondita = assay: Example G wheat leaf rust; type: in vivo; conditions: 100 PPM, read-out: disease control rating, Ex. G
# WILD BUCKWHEAT = assay: Test E; type: in vivo, Polygonum convolvulus
# Botrytis cinerea = assay: Example C bean grey mold; type: in vivo; conditions: Botrytis cinerea, 24 h, 100 PPM; read-out: disease control rating, Ex. C
# How it was run: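 Compound is first dissolved in acetone, the acetone making up 6% of the final volume. The solution is then suspended in purified water with 250 ppm of the polyhydric alcohol ester surfactant TREM 014 to give 100 or 20 ppm. Seedlings of broad bean receive this spray until liquid runs off.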
# JET RAPE = assay: Test E; type: in vivo, Brassica napus cv. Jet Neuf
# LAMBSQUARTER = assay: Test E; type: in vivo, Chenopodium album
# [1] = test system: Candida albicans ATCC 11651; assay: In vivo systemic Candida infection in mice, primary assay; design: species or system Candida albicans; CF-1 female mice; conditions: Candida albicans, 150 mg/kg per day, read-out: % Survival
# How it was run: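 CF-1 female mice (20 g, 10 per group) were infected IV with 0.2 ml of 1×10^7/ml C. albicans ATCC 11651, then given test compound subcutaneously at 50 or 150 mg/kg/day at 1 and 6 h post-infection and once daily for three more days. Survival was followed for 21 days against infected untreated mice; ≥70% protection at 14 days was scored active.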
# CMN CHICKWEED = assay: Test E; type: in vivo, Stellaria media
# Pyricularia oryzae = assay: whole plant or invertebrate; type: in vivo; conditions: Pyricularia oryzae, 120 h, read-out: disease control rating, Ex. E, 100 PPM
# WILD RADISH = assay: Test E; type: in vivo, Raphanus raphanistrum
# [2] = test system: Cercosporidium personatum; assay: Example B Peanut Late Leafspot; type: in vivo; conditions: Nothopassalora personata; 100 PPM; read-out: disease control rating, Ex. B
# How it was run: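 Each compound is first taken up in acetone, which makes up 6% of the final spray volume. It is then suspended in purified water with 250 ppm TREM 014 at 100 or 20 ppm. Seedlings of peanut are sprayed until run-off.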
# WATERCHESTNUT = assay: Test C rice paddy; type: in vivo, Eleocharis spp.; conditions: Eleocharis, 504 h, 21 days, read-out: plant response; for pest or weed control at 64 g/ha: 0064 G/HA; for pest or weed control at 125 g/ha: 0125 G/HA; for pest or weed control at 250 g/ha: 0250 G/HA; for pest or weed control at 500 g/ha: 0500 G/HA
# Description: (§1) Sixteen cm diameter Airlite plastic pots were partially filled with Tama slit loam soil and the soil saturated with water. Japonica and Indica rice seedlings a the 2.0 to 2.5 leaf stage were transplanted into 1/3 of the pots. Into another third of the pots were transplanted seedling or sprouted tubers of water plantain (Alisma trivale), Scripus (Scirpus paludosus), Cyperus (Cyperus esculentus), and arrowhead (Sagittaria spp.). The remaining pots were planted with barnyardgrass (Echinochloa crusgalli) seeds and sprouted tubes of water chestnut (Eleocharis spp.). These weeds all represent major rice weeds or genera of weeds important in rice. Three to four days after planting, the water level was raised to 3 cm (about 1200 ml/pot) and maintained a this level throughout the test. Chemical treatments were applied directly to the paddy water, within 24 hours of raising the water, after being formulated in a nonphytotoxic solvent. The pots were maintained in the greenhouse.
# Sclerotium rolfsii = assay: Example M southern blight; type: in vivo; conditions: Agroathelia rolfsii, 336 h; 5 kg/ha; read-out: disease control rating, Ex. M
# Protocol: […] Seeds and soil were then inoculated with a mixture of sand, cereal and mycelium of the fungus Sclerotium rolfsii, causal agent of sourthern blight, and incubated in a growth chamber at 30° C. for 14 days. Disease ratings were then made.
# BARNYARDGRASS = assay: Test C rice paddy; type: in vivo, Echinochloa crusgalli; conditions: Echinochloa crus-galli, 504 h, 21 days, read-out: plant response; for pest or weed control at 64 g/ha: 0064 G/HA; for pest or weed control at 125 g/ha: 0125 G/HA; for pest or weed control at 250 g/ha: 0250 G/HA; for pest or weed control at 500 g/ha: 0500 G/HA
# Description: as §1
smiles,measurement,setting,value
C=C(c1ccc(F)cc1)C(O)(Cn1cncn1)c1ccccc1F (centres unmarked) [Example 644],pest or weed control at 100 ppm,Puccinia recondita,100%
same,plant response,WILD BUCKWHEAT; POSTEMERGENCE 0064 GM/HA,0%
same,plant response,WILD BUCKWHEAT; POSTEMERGENCE 0125 GM/HA,0%
same,plant response,WILD BUCKWHEAT; POSTEMERGENCE 0250 GM/HA,0%
same,plant response,WILD BUCKWHEAT; POSTEMERGENCE 0500 GM/HA,0%
same,plant response,WILD BUCKWHEAT; PREEMERGENCE 0500 GM/HA,30%
same,pest or weed control at 100 ppm,Botrytis cinerea,94%
same,plant response,JET RAPE; POSTEMERGENCE 0064 GM/HA,0%
same,plant response,JET RAPE; POSTEMERGENCE 0125 GM/HA,0%
same,plant response,JET RAPE; POSTEMERGENCE 0250 GM/HA,0%
same,plant response,JET RAPE; POSTEMERGENCE 0500 GM/HA,30%
same,plant response,JET RAPE; PREEMERGENCE 0500 GM/HA,20%
same,plant response,LAMBSQUARTER; POSTEMERGENCE 0064 GM/HA,0%
same,plant response,LAMBSQUARTER; POSTEMERGENCE 0125 GM/HA,0%
same,plant response,LAMBSQUARTER; POSTEMERGENCE 0250 GM/HA,20%
same,plant response,LAMBSQUARTER; POSTEMERGENCE 0500 GM/HA,40%
same,plant response,LAMBSQUARTER; PREEMERGENCE 0500 GM/HA,85%
same,responders at 150 mg/kg,"[1]; ATCC11651, 168 h, day 7",80%
same,responders at 150 mg/kg,"[1]; ATCC11651, 336 h, day 14",70%
same,responders at 150 mg/kg,"[1]; ATCC11651, 504 h, day 21",50%
same,plant response,CMN CHICKWEED; POSTEMERGENCE 0064 GM/HA,0%
same,plant response,CMN CHICKWEED; POSTEMERGENCE 0125 GM/HA,0%
same,plant response,CMN CHICKWEED; POSTEMERGENCE 0250 GM/HA,0%
same,plant response,CMN CHICKWEED; POSTEMERGENCE 0500 GM/HA,0%
same,plant response,CMN CHICKWEED; PREEMERGENCE 0500 GM/HA,20%
same,pest or weed control at 100 ppm,Pyricularia oryzae,100%
same,plant response,WILD RADISH; POSTEMERGENCE 0064 GM/HA,20%
same,plant response,WILD RADISH; POSTEMERGENCE 0125 GM/HA,30%
same,plant response,WILD RADISH; POSTEMERGENCE 0250 GM/HA,50%
same,plant response,WILD RADISH; POSTEMERGENCE 0500 GM/HA,80%
same,plant response,WILD RADISH; PREEMERGENCE 0500 GM/HA,0%
same,pest or weed control at 100 ppm,[2],100%
C=C(c1ccc(Cl)cc1)C(O)(Cn1cncn1)c1ccccc1F (centres unmarked) [Example 669],pest or weed control at 100 ppm,Puccinia recondita,100%
same,pest or weed control at 64 g/ha,WATERCHESTNUT,0%
same,pest or weed control at 125 g/ha,WATERCHESTNUT,0%
same,pest or weed control at 250 g/ha,WATERCHESTNUT,0%
same,pest or weed control at 500 g/ha,WATERCHESTNUT,0%
same,pest or weed control at 1000 g/ha,WATERCHESTNUT,0%
same,pest or weed control at 100 ppm,Botrytis cinerea,90%
same,pest or weed control at 5000 g/ha,Sclerotium rolfsii,0%
same,responders at 150 mg/kg,"[1]; ATCC11651, 168 h, day 7",100%
same,responders at 150 mg/kg,"[1]; ATCC11651, 336 h, day 14",100%
same,responders at 150 mg/kg,"[1]; ATCC11651, 504 h, day 21",100%
same,pest or weed control at 64 g/ha,BARNYARDGRASS,90%
same,pest or weed control at 125 g/ha,BARNYARDGRASS,98%
same,pest or weed control at 250 g/ha,BARNYARDGRASS,98%
same,pest or weed control at 500 g/ha,BARNYARDGRASS,90%
same,pest or weed control at 1000 g/ha,BARNYARDGRASS,100%
same,pest or weed control at 100 ppm,Pyricularia oryzae,96%
same,pest or weed control at 100 ppm,[2],100%
C=C(c1ccc(F)cc1)C(O)(Cn1ncnc1S)c1ccc(F)cc1F (centres unmarked) [Example 1304],pest or weed control at 100 ppm,Puccinia recondita,100%
same,pest or weed control at 64 g/ha,WATERCHESTNUT,0%
same,pest or weed control at 125 g/ha,WATERCHESTNUT,0%
same,pest or weed control at 250 g/ha,WATERCHESTNUT,0%
same,pest or weed control at 500 g/ha,WATERCHESTNUT,0%
same,pest or weed control at 1000 g/ha,WATERCHESTNUT,50%
same,pest or weed control at 100 ppm,Botrytis cinerea,97%
same,pest or weed control at 5000 g/ha,Sclerotium rolfsii,0%
same,pest or weed control at 64 g/ha,BARNYARDGRASS,85%
same,pest or weed control at 125 g/ha,BARNYARDGRASS,100%
same,pest or weed control at 250 g/ha,BARNYARDGRASS,100%
same,pest or weed control at 500 g/ha,BARNYARDGRASS,98%
same,pest or weed control at 1000 g/ha,BARNYARDGRASS,100%
same,pest or weed control at 100 ppm,Pyricularia oryzae,78%
same,pest or weed control at 100 ppm,[2],100%
C=C(c1ccc(F)cc1)C(O)(Cn1ncnc1I)c1ccc(F)cc1F (centres unmarked) [Example 1381],pest or weed control at 100 ppm,Puccinia recondita,100%
same,pest or weed control at 64 g/ha,WATERCHESTNUT,0%
same,pest or weed control at 125 g/ha,WATERCHESTNUT,0%
same,pest or weed control at 250 g/ha,WATERCHESTNUT,0%
same,pest or weed control at 500 g/ha,WATERCHESTNUT,0%
same,pest or weed control at 1000 g/ha,WATERCHESTNUT,0%
same,pest or weed control at 100 ppm,Botrytis cinerea,97%
same,pest or weed control at 5000 g/ha,Sclerotium rolfsii,0%
same,pest or weed control at 64 g/ha,BARNYARDGRASS,55%
same,pest or weed control at 125 g/ha,BARNYARDGRASS,55%
same,pest or weed control at 250 g/ha,BARNYARDGRASS,60%
same,pest or weed control at 500 g/ha,BARNYARDGRASS,100%
same,pest or weed control at 1000 g/ha,BARNYARDGRASS,100%
same,pest or weed control at 100 ppm,Pyricularia oryzae,51%
same,pest or weed control at 100 ppm,[2],100%
